Experiments:
DU-145 = type: cell-based, Human; settings: DU-145, 48 hours
FADU = type: cell-based, Human; settings: FADU, 48 hours
NCI-H460 = type: cell-based, Human; settings: NCI-H460, 48 hours
SW1736 = type: cell-based, Human; settings: SW1736, 48 hours
SK-N-SH = type: cell-based, Human; settings: SK-N-SH, 48 hours
BXPC-3 = type: cell-based, Human; settings: BXPC-3, 48 hours
[1] = test system: P388 lymphocytic leukemia; type: cell-based, Murine; settings: murine P-388 leukemia, 48 hours
[2] = test system: eight bacteria and two fungi tested; assay: Disk susceptibility testing, whole microbe panel; type: cell-based; settings: at 100 μg/disk, eight bacteria and two fungi
Solubility in water = settings: mg per 1 ml water at 25° C.
SK-Mel-3 = type: cell-based, Human; settings: SK-Mel-3, 48 hours
Neisseria gonorrhoeae = type: cell-based; settings: Neisseria gonorrhoeae, disk susceptibility

Molecule	GI50 Prostate DU-145 (DU-145) [µg/mL]	GI50 Pharynx FADU (FADU) [µg/mL]	GI50 Lung-NSC NCI-H460 (NCI-H460) [µg/mL]	GI50 Thyroid SW1736 (SW1736) [µg/mL]	GI50 Neuroblast SK-N-SH (SK-N-SH) [µg/mL]	GI50 Pancreas BXPC-3 (BXPC-3) [µg/mL]	ED50 P-388 [1] [µg/mL]	Microbe(s) inhibited [2]	Solubility (Solubility in water) [µg/mL]	GI50 Melanoma SK-Mel-3 (SK-Mel-3) [µg/mL]	Minimum inhibitory amount per disk (Neisseria gonorrhoeae)
COc1ccc(/C=C\c2cc(OC)c(OC)c(OC)c2)cc1OP(=O)([O-])[O-].[Mg+2] [Compound 5d, Magnesium combretastatin A-4 3-O-phosphate]	0.01	0.031	0.017	6.8	0.01	0.43	0.0018	* (At 100 μg/disk no inhibition of the eight bacteria and two fungi tested.)	7000		
Adenosine combretastatin A-4 3′-O-phosphate [Compound 5m]	0.036	0.032	0.038	0.092	0.034	11.6	0.16	* (At 100 μg/disk no inhibition of the eight bacteria and two fungi tested.)		0.35	
Calcium combretastatin A-4 3′-O-phosphate [Compound 5a]	0.001	0.001	0.001	0.010	0.015	0.22	0.0011	* (At 100 μg/disk no inhibition of the eight bacteria and two fungi tested.)		0.0036	
Cesium combretastatin A-4 3′-O-phosphate [Compound 5b]	0.0028	0.0023	0.0032	8.4	0.011	0.31	0.001	* (At 100 μg/disk no inhibition of the eight bacteria and two fungi tested.)	>50000	0.0043	
Cinchonine combretastatin A-4 3-O-phosphate [Compound 5n]	0.030	0.024	0.037	0.089		1.6	0.020		4000		25–50 μg/disk
Glucosamine combretastatin A-4 3′-O-phosphate [Compound 5o]	0.026	0.015	0.034	0.061	0.016	4.5	0.0164	* (At 100 μg/disk no inhibition of the eight bacteria and two fungi tested.)	15000		
Imidazole combretastatin A-4 3-O-phosphate [Compound 5g]	0.001	0.01	0.004	0.011	0.01	0.39	0.0025	* (At 100 μg/disk no inhibition of the eight bacteria and two fungi tested.)		0.01	
Lithium combretastatin A-4 3-O-phosphate [Compound 5c]	0.0025	0.003	0.004	0.030	0.016	0.31	0.0012	* (At 100 μg/disk no inhibition of the eight bacteria and two fungi tested.)			
Morpholine combretastatin A-4 3′-O-phosphate [Compound 5h]	0.0024	0.0016	0.003	0.02	0.039	0.26	0.0023	* (At 100 μg/disk no inhibition of the eight bacteria and two fungi tested.)		0.0042	
Piperidine combretastatin A-4 3′-O-phosphate [Compound 5j]	0.01	0.01	0.01	0.50	0.017	0.30	0.0029	* (At 100 μg/disk no inhibition of the eight bacteria and two fungi tested.)	5000	0.01	
Pyrazole combretastatin A-4 3-O-phosphate [Compound 5k]	0.01	0.01	0.01	4.6	0.014	0.23	0.0023	* (At 100 μg/disk no inhibition of the eight bacteria and two fungi tested.)		0.01	
Pyridine combretastatin A-4 3′-O-phosphate [Compound 5l]	0.036	0.032	0.038	0.01	0.03	11.6	<0.001	* (At 100 μg/disk no inhibition of the eight bacteria and two fungi tested.)	3000	0.35	
Quinidine combretastatin A-4 3-O-phosphate [Compound 5q]	0.0036	0.0033	0.0039	0.11		0.43	0.0032				6.25–12.5 μg/disk
Quinine combretastatin A-4 3′-O-phosphate [Compound 5p]	0.0048	0.006	0.0042	7.5		2.2	0.027	* (At 100 μg/disk no inhibition of the eight bacteria and two fungi tested.)			
Zinc combretastatin A-4 3′-O-phosphate [Compound 5f]	0.0062	0.0070	0.0074	0.059	0.024	1.1	0.0343	* (At 100 μg/disk no inhibition of the eight bacteria and two fungi tested.)	11000	1.0	

— patent US7018987B1 (priority 1998, dated 2006)
